Measured values from ChEMBL document CHEMBL1126745, “2,2-Dialkylnaphthalen-1-ones as new potassium channel activators” (J Med Chem, 1993).

How the values were obtained:
Cavia porcellus [1] = organism: Cavia porcellus; test: In vitro inhibition of spontaneous tone of guinea pig tracheal spirals; assay type: functional; conditions: Trachea
Rattus norvegicus [2] = organism: Rattus norvegicus; test: Percentage of inhibition of noradrenaline-induced contractions in rat portal vein at 10 uM (in vitro); assay type: functional
Rattus norvegicus [3] = test: Change in systolic blood pressure at intervals of 1 hr after oral administration of 1 mg/kg of compound in spontaneously hypertensive rats (in vivo); Not significant; assay type: functional, Artery
Rattus norvegicus [4] = organism: Rattus norvegicus; test: In vitro inhibition of noradrenaline-induced contractions in rat portal vein; assay type: functional
Rattus norvegicus [5] = test: Effective dose (after peroral administration) required to decrease systolic blood pressure by 30 mmHg in spontaneously hypertensive rats (SHR); assay type: functional; conditions: Artery, po
Rattus norvegicus [6] = test: Change in systolic blood pressure at intervals of 1 hr after oral administration of 1 mg/kg of compound in spontaneously hypertensive rats (in vivo); assay type: functional, Artery
Rattus norvegicus [7] = organism: Rattus norvegicus; test: Inhibition of noradrenaline-induced contractions in rat portal vein; Insoluble; assay type: functional
Rattus norvegicus [8] = test: Change in systolic blood pressure at intervals of 1 hr after oral administration of 0.1 mg/kg of compound in spontaneously hypertensive rats (in vivo); assay type: functional, Artery
Cavia porcellus [9] = organism: Cavia porcellus; test: Inhibition of spontaneous tone of guinea pig tracheal spirals; Insoluble; assay type: functional, Trachea

| Compound | IC50 (Cavia porcellus [1]) | IC50 (Rattus norvegicus [4]) | ED30 (Rattus norvegicus [5]) | other results |
| --- | --- | --- | --- | --- |
| CC1(C)C(=O)c2ccc(C#N)cc2[C@@H](NC(=O)c2ccc(Cl)c(Cl)c2)[C@@H]1O | > 10000 nM |  |  | inhibition at 10 µM (Rattus norvegicus [2]): 67%; Delta blood pressure (Rattus norvegicus [3]): <20 mmHg |
| CC1(C)C=C(n2ccccc2=O)c2cc(C#N)ccc2C1=O | 500 nM | 600 nM | 4 µg/kg |  |
| CC1(C)C(=O)c2ccc(C#N)cc2[C@@H](Oc2ccc(=O)[nH]n2)[C@@H]1O | 2100 nM | 8800 nM | 6 µg/kg |  |
| C/C(=N/[C@@H]1c2cc(C#N)ccc2C(=O)C(C)(C)[C@H]1O)NC#N | 3500 nM |  |  | inhibition at 10 µM (Rattus norvegicus [2]): 19%; Delta blood pressure (Rattus norvegicus [3]): <20 mmHg |
| CC(=O)OC1c2ccc(Br)cc2C(n2ccccc2=O)=CC1(C)C (configuration not stated) | > 10000 nM |  |  | inhibition at 10 µM (Rattus norvegicus [2]): 38%; Delta blood pressure (Rattus norvegicus [3]): <20 mmHg |
| Cn1nc(O[C@@H]2c3cc(C#N)ccc3C(=O)C(C)(C)[C@H]2O)ccc1=O | 600 nM | 2800 nM | 40 µg/kg |  |
| CC1(C)C=C(n2ccccc2=O)c2cc(C#C[Si](C)(C)C)ccc2C1=O | 2400 nM | 500 nM | 5 µg/kg |  |
| C#Cc1ccc2c(c1)C(n1ccccc1=O)=CC(C)(C)C2=O | 200 nM | 1000 nM | 2 µg/kg | Max fall in blood pressure (Rattus norvegicus [6]): 94 mmHg |
| CC1(C)C=C(n2ccccc2=O)c2cc(C(F)(F)C(F)(F)F)ccc2C1=O |  |  | 2 µg/kg | IC50 (Rattus norvegicus [7]): Insoluble; Max fall in blood pressure (Rattus norvegicus [8]): 81 mmHg; IC50 (Cavia porcellus [9]): Insoluble |
| CC1(C)C=C(n2ccccc2=O)c2cc(C(F)(F)F)ccc2C1=O | 500 nM | 300 nM | 5 µg/kg |  |
| CC1(C)C=C(n2ccccc2=O)c2cc(Br)ccc2C1=O | 200 nM | 500 nM | 9 µg/kg | Max fall in blood pressure (Rattus norvegicus [8]): 42.6 mmHg |
| CC1(C)C=C(n2ccccc2=O)c2cc(C(N)=O)ccc2C1=O | > 10000 nM |  |  | inhibition at 10 µM (Rattus norvegicus [2]): 21%; Delta blood pressure (Rattus norvegicus [3]): <20 mmHg |
| CC1(C)C=C(N2CCCC2=O)c2cc(C#N)ccc2C1=O | 900 nM | 800 nM | 30 µg/kg |  |
| CC1(C)Oc2ccc(C#N)cc2C(N2CCCC2=O)C1O (racemic) [CROMAKALIM] |  |  | 50 µg/kg |  |
| CC1(C)Oc2ccc(C#N)cc2[C@@H](N2CCCC2=O)[C@@H]1O [LEVCROMAKALIM] | 300 nM | 100 nM | 10 µg/kg | Max fall in blood pressure (Rattus norvegicus [8]): 73 mmHg |
